Experimental findings from US20160081978A1, “PHARMACEUTICAL COMPOSITION CONTAINING LIRIODENDRON TULIPIFERA L. EXTRACT FOR TREATING CHRONIC MYELOGENOUS LEUKEMIA” (CHO DANG PHARM. CO., LTD., priority 2013, published 2016) are described below.

Common to all, as to assay: XTT cell viability assay, inhibition of multiplication of leukemia cell line
Holding throughout (format): cell-based
In general terms: Formazan colour is commonly taken as a measure of viable cells.

Assay [1] deals with Ba/F3 (BCR/ABL-T315I) cell line. The text has this: For measuring the cell viability indicating the inhibition of multiplication, in vitro XTT assay has been employed. […] Finally, the cell viability has been measured using ELISA through the absorbance at 620 nm, 540 nm (FIG. 1).
A further assay deals with Ba/F3(BCR/ABL) cell line. As to conditions: 1 mg/ml of CD-200, 1 μM of CD-EPT, 48 hours. The procedure:
(§1) For measuring the cell viability indicating the inhibition of multiplication, in vitro XTT assay has been employed. […] To find out the selective inhibition of T315I enzyme variant from BCR-ABL fusion gene, the cell lines have been incubated for 48 hours at 37° C. After incubation, the sample has been treated with XTT formazan (WEL GENE) for 4 hours at 37° C. Finally, the cell viability has been measured using ELISA through the absorbance at 620 nm, 540 nm (FIG. 1).

For the next assay, the system named is Ba/F3 mother cell line. To be noted: 1 mg/ml of CD-200, 1 μM of CD-EPT, 48 hours. The procedure:
as §1

On to `C=C1C(=O)O[C@@H]2/C=C(\C)CC/C=C(\C)C[C@@H](OC(C)=O)[C@@H]12` [CD-EPT, epi-tulipinolide], for which the “inhibition of cell growth compared to Imatinib” value in assay [1] (1 μM of Imatinib, 1 mg/ml of CD-200, 1 μM of CD-EPT, Ba/F3 (BCR/ABL-T315I) cell line) is “effective inhibition of cell growth compared to Imatinib”. In addition, the “inhibition of cell growth (cell viability)” value is recorded as “effectively inhibit the cell growth” in assay [1] (1 mg/ml of CD-200, 1 μM of CD-EPT, 48 hours, XTT, Ba/F3 (BCR/ABL-T315I) cell line); “cannot significantly inhibit the cell growth” in the assay on Ba/F3(BCR/ABL) cell line; “effectively inhibit the cell growth” in the assay on Ba/F3 mother cell line. In assay [1] (Ba/F3 (BCR/ABL-T315I) mutant, XTT, 48 hours), this compound registered a concentration for half-maximal inhibition (IC50) of 0.8 µM. Moreover, the “effective inhibition capability compared to Imatinib” value in assay [1] (Ba/F3 (BCR/ABL-T315I) mutant, from IC50 values) was 5 times.

What is called IC50 is the concentration that gives 50% inhibition. Lower therefore signals higher potency.
